Consider nine compounds from ChEMBL document CHEMBL4190339, “Design, synthesis and preliminary biological evaluation of new [1,2,3]triazolo[4,5-d]pyrimidine/thiourea hybrids as antiproliferative agents” (Eur J Med Chem, 2017).

pIC50: −log10 of the molar value. The source made the active and inactive calls. The calls are words filed in the database; no cut-off is given here.

In data set [1] the test system is MKN-45. The data set is described as follows: Antiproliferative activity against human MKN45 cells after 48 hrs by MTT assay. To be noted: MKN-45, 48 h. The class given is functional, cell-based.
For data set [2], the system named is MGC-803. The data set is described as follows: Antiproliferative activity against human MGC803 cells after 48 hrs by MTT assay. The format is functional, cell-based. The conditions noted are these: MGC-803, 48 h.
Data set [3] concerns NCI-H1650. The data set is described as follows: Antiproliferative activity against human NCI-H1650 cells after 48 hrs by MTT assay. The format is functional, cell-based. The conditions noted are these: NCI-H1650, 48 h.
In data set [4] the test system is A549. The data set is described as follows: Antiproliferative activity against human A549 cells after 48 hrs by MTT assay. The class given is functional, cell-based. To be noted: A549, 48 h.
In data set [5] the test system is ECa-109 cell line. The data set is described as follows: Antiproliferative activity against human EC109 cells after 48 hrs by MTT assay. The format is functional, cell-based. The conditions noted are these: ECa-109, 48 h.
In data set [6] the test system is GES1. The data set is described as follows: Antiproliferative activity against human GES-1 cells after 48 hrs by MTT assay. The format is cell-based. The conditions noted are these: GES1, 48 h.
Data set [7] in a line: Selectivity index, ratio of IC50 for human GES-1 cells to IC50 for human NCI-H1650 cells. The conditions noted are these: GES-1 cells versus NCI-H1650 cells, read-out: Ratio IC50. The format is toxicity.
Data set [8] relates to NCI-H1650. The data set is described as follows: Anticlonogenic activity against human NCI-H1650 cells assessed as inhibition of colony formation at 10 uM after 9 days by crystal violet staining-based assay relative to control. To be noted: NCI-H1650, 216 h. The format is functional.
For data set [9], the system named is NCI-H1650. The data set is described as follows: Anticlonogenic activity against human NCI-H1650 cells assessed as inhibition of colony formation after 9 days by crystal violet staining-based assay. The class given is functional, cell-based.
Data set [10] has as its system NCI-H1650. The data set is described as follows: Induction of apoptosis in human NCI-H1650 cells assessed as early apoptotic cells at 2 uM after 24 hrs by Annexin-V-FITC/propidium iodide staining based flow cytometry (reference value: 5.58%). The class given is functional.
The test system of data set [11] is NCI-H1650. The data set is described as follows: Induction of apoptosis in human NCI-H1650 cells assessed as late apoptotic cells at 2 uM after 24 hrs by Annexin-V-FITC/propidium iodide staining based flow cytometry (reference value: 7.64%). The format is functional.
Data set [12] concerns NCI-H1650. The data set is described as follows: Induction of apoptosis in human NCI-H1650 cells assessed as necrotic cells at 2 uM after 24 hrs by Annexin-V-FITC/propidium iodide staining based flow cytometry (reference value: 3.22%). The format is functional.
The subject of data set [13] is NCI-H1650. The data set is described as follows: Induction of apoptosis in human NCI-H1650 cells assessed as viable cells at 2 uM after 24 hrs by Annexin-V-FITC/propidium iodide staining based flow cytometry (reference value: 83.6%). The class given is functional. To be noted: NCI-H1650, 24 h, read-out: Activity.
Data set [14] deals with NCI-H1650. The data set is described as follows: Induction of apoptosis in human NCI-H1650 cells assessed as early apoptotic cells at 4 uM after 24 hrs by Annexin-V-FITC/propidium iodide staining based flow cytometry (reference value: 5.58%). The format is functional.
The test system of data set [15] is NCI-H1650. The data set is described as follows: Induction of apoptosis in human NCI-H1650 cells assessed as late apoptotic cells at 4 uM after 24 hrs by Annexin-V-FITC/propidium iodide staining based flow cytometry (reference value: 7.64%). The format is functional.
Data set [16] deals with NCI-H1650. The data set is described as follows: Induction of apoptosis in human NCI-H1650 cells assessed as necrotic cells at 4 uM after 24 hrs by Annexin-V-FITC/propidium iodide staining based flow cytometry (reference value: 3.22%). The format is functional.
Data set [17] concerns NCI-H1650. The data set is described as follows: Induction of apoptosis in human NCI-H1650 cells assessed as viable cells at 4 uM after 24 hrs by Annexin-V-FITC/propidium iodide staining based flow cytometry (reference value: 83.6%). The format is functional. The conditions noted are these: NCI-H1650, 24 h, read-out: Activity.
For data set [18], the system named is NCI-H1650. The data set is described as follows: Induction of apoptosis in human NCI-H1650 cells assessed as increase in early apoptotic cells after 24 hrs by Annexin-V-FITC/propidium iodide staining based flow cytometry. The format is functional, cell-based.
Data set [19] deals with NCI-H1650. The data set is described as follows: Induction of apoptosis in human NCI-H1650 cells assessed as increase in Bax expression measured after 24 hrs by Western blot analysis. The class given is functional, cell-based.
The test system of data set [20] is NCI-H1650. The data set is described as follows: Induction of apoptosis in human NCI-H1650 cells assessed as reduction in Bcl-2 expression up to 8 uM after 24 hrs by Western blot analysis. The format is functional, cell-based.
For data set [21], the system named is NCI-H1650. The data set is described as follows: Induction of apoptosis in human NCI-H1650 cells assessed as increase in cleaved caspase-3 level up to 8 uM after 24 hrs by Western blot analysis. The class given is functional, cell-based.
In data set [22] the test system is NCI-H1650. The data set is described as follows: Induction of apoptosis in human NCI-H1650 cells assessed as increase in cleaved caspase-9 level up to 8 uM after 24 hrs by Western blot analysis. The class given is functional, cell-based.
The test system of data set [23] is NCI-H1650. The data set is described as follows: Cell cycle arrest in human NCI-H1650 cells assessed as accumulation at G1 phase at 2 uM after 24 hrs by propidium iodide staining-based flow cytometry (reference value: 55.7%). The class given is functional.
Data set [24] concerns NCI-H1650. The data set is described as follows: Cell cycle arrest in human NCI-H1650 cells assessed as accumulation at G2/M phase at 2 uM after 24 hrs by propidium iodide staining-based flow cytometry (reference value: 12.4%). The class given is functional.
Data set [25] concerns NCI-H1650. The data set is described as follows: Cell cycle arrest in human NCI-H1650 cells assessed as accumulation at S phase at 2 uM after 24 hrs by propidium iodide staining-based flow cytometry (reference value: 36.2%). The format is functional.
In data set [26] the test system is NCI-H1650. The data set is described as follows: Cell cycle arrest in human NCI-H1650 cells assessed as accumulation at S phase at 4 uM after 24 hrs by propidium iodide staining-based flow cytometry (reference value: 36.2%). The format is functional.
Data set [27] has as its system NCI-H1650. The data set is described as follows: Cell cycle arrest in human NCI-H1650 cells assessed as accumulation at G1 phase at 4 uM after 24 hrs by propidium iodide staining-based flow cytometry (reference value: 55.7%). The format is functional.
For data set [28], the system named is NCI-H1650. The data set is described as follows: Cell cycle arrest in human NCI-H1650 cells assessed as accumulation at G2/M phase at 4 uM after 24 hrs by propidium iodide staining-based flow cytometry (reference value: 12.4%). The class given is functional.
In data set [29] the test system is NCI-H1650. The data set is described as follows: Cell cycle arrest in human NCI-H1650 cells assessed as accumulation at G1 phase at 8 uM after 24 hrs by propidium iodide staining-based flow cytometry (reference value: 55.7%). The class given is functional.
Data set [30] concerns NCI-H1650. The data set is described as follows: Cell cycle arrest in human NCI-H1650 cells assessed as accumulation at G2/M phase at 8 uM after 24 hrs by propidium iodide staining-based flow cytometry (reference value: 12.4%). The class given is functional.
The subject of data set [31] is NCI-H1650. The data set is described as follows: Cell cycle arrest in human NCI-H1650 cells assessed as accumulation at S phase at 8 uM after 24 hrs by propidium iodide staining-based flow cytometry (reference value: 36.2%). The class given is functional.
Data set [32] deals with NCI-H1650. The data set is described as follows: Cell cycle arrest in human NCI-H1650 cells assessed as accumulation at G2/M phase after 24 hrs by propidium iodide staining-based flow cytometry. The format is functional.

For the compound `CCCSc1nc(NCCNC(=S)Nc2cccnc2)c2nnn(CCc3c[nH]c4ccccc34)c2n1`, the negative logarithm of the IC50 (pIC50) was 5.49 in data set [1]; 5.04 in [2]; 5.72 in data set [3]; 5.48 in [4]; 5.09 in data set [5]; 4.56 in data set [6]. The selectivity ratio in data set [7] is 14.4. Besides, the inhibition at 10 µM in data set [8] is not above 68%. The inhibition result in data set [9] was “Dose-dependent effect”. Besides, the Activity was 35.5% in [10]; 12.3% in data set [11]; 1.14% in [12]; 36.7% in data set [14]; 15.1% in data set [15]; 1.38% in data set [16]. The Activity result was “Dose-dependent effect” in data set [18]; “Dose-dependent effect” in data set [19]; 30.6% in data set [23]; 23.2% in [24]; 35.1% in data set [25]; 21.9% in [26]. The Activity is 27.2% in [27]; 34.7% in data set [28]; 20.8% in data set [29]; 45.6% in data set [30]; 38.4% in data set [31]; “Dose-dependent effect” in [32]. Moreover, the viability at 2 µM in data set [13] is 51.1%. Further, the viability at 4 µM in data set [17] came to 46.8%. In addition, the outcome in data set [20], in data set [21] and in data set [22] was Active.
For the compound `CCCSc1nc(NCCNC(=S)Nc2ccc(C)cc2)c2nnn(CCc3ccccc3)c2n1`, the pIC50 in data set [1] was 4.30; in [2], 4.45; in [3] it was 4.23; in data set [4] it was 4.37; in [5], 4.55; in data set [6], 4.37.
`CCCSc1nc(NCCNC(=S)Nc2cccnc2)c2nnn(CC(C)C)c2n1`: the negative-log IC50 (pIC50) in data set [1] was 4.72; in data set [2], 4.60; in [3], 4.82; in [4], 4.98; in [5], less than 4.19; in data set [6], 4.32.
For `CCCSc1nc(NCCNC(=S)Nc2ccc(Cl)cc2)c2nnn(CCc3ccccc3)c2n1`, the negative logarithm of the IC50 (pIC50) in [1] is 4.43; in [2], 4.57; in data set [3], 4.88; in [4], 4.64; in data set [5], 4.98; in data set [6], 4.39.
For the compound `CCCSc1nc(NCCNC(=S)Nc2ccc(Br)cc2)c2nnn(CCc3ccccc3)c2n1`, the pIC50 in data set [1] is 4.40; in [2], 4.42; in data set [3], 4.29; in [4], 4.49; in [5] it was 4.64; in data set [6], less than 4.19.
`CCCSc1nc(NCCNC(=S)Nc2cccc3ccccc23)c2nnn(CCc3ccccc3)c2n1`: the negative-log IC50 (pIC50) in data set [1] is 5.01; in data set [2], less than 4.19; in [3], 5.19; in data set [4], 4.39; in [5], less than 4.19; in [6] it was less than 4.19.
For `CCCSc1nc(NCCNC(=S)Nc2ccccc2Cl)c2nnn(CCc3ccccc3)c2n1`, the pIC50 was less than 4.19 in [1]; less than 4.19 in data set [2]; 4.74 in data set [3]; less than 4.19 in [4]; less than 4.19 in data set [5]; less than 4.19 in data set [6].
For the compound `CCCSc1nc(NCCNC(=S)Nc2ccccc2)c2nnn(CCc3ccccc3)c2n1`, the pIC50 in [1] is less than 4.19; in data set [2], less than 4.19; in data set [3] it was 4.31; in data set [4], less than 4.19; in [5] it was 4.43; in data set [6], 4.27.
Turning to `CCCSc1nc(NCCNC(=S)Nc2cccnc2)c2nnn(CCc3ccccc3)c2n1`, the pIC50 in data set [1] is 5.18; in [2], 4.79; in data set [3], 5.62; in [4], 5.08; in data set [5], 5.30; in [6], 4.52.
